The values that follow come from patent US20250213593A1, “Use of Derivatives based on Sarsasapogenin Structure and Pharmaceutical Compositions thereof” (BEIJING PHYTOVENT PHARMACEUTICAL TECHNOLOGY CO., LTD., priority 2022, published 2025).

Experiment [1] deals with primary cultured neurons in rats (cerebral cortex). Briefly: Oxygen glucose deprivation (OGD) injury of primary cultured rat neurons. It counts as cell-based. The source says:
Experimental and analytical method: rats, 15 days pregnant, were ordered, brains of fetal rats (E15-16) were dissected, and neurons in the cerebral cortex were subjected to primary culture in a neuronal medium for 14 days (DIV 14) using 48-well plates, followed by an OGD experiment. During the OGD experiment, a neuronal culture solution was replaced by a glucose- and oxygen-free culture solution (95% N2/5% CO2 balance), and the neurons were subjected to OGD treatment in an OGD chamber. Then, the oxygen- and glucose-free culture medium was replaced by a normal neuronal culture solution, which was then cultured in a 95% Air/5% CO2 incubator for 24 h for neuronal activity analysis. By staining with Hoechst 33342 and Propidium iodide, a high-content fluorescence microscope was used for photographing, wherein 20 random non-overlapping visual fields were photographed per duplicate well, and the total number of neurons and the number of dead neurons were counted by software (Thermo Scientific™, HCS Studio Cell Analysis Software). […]

Experiment [2] concerns C57BL/6 mouse MCAO damage model. Briefly: Mice middle cerebral artery occlusion (MCAO) damage model. Type of experiment: in vivo. As to conditions: 24 h after surgery, vs MCAO model group. On the procedure: Animal grouping and treatment: according to body weight on Day 1, the animals were randomly divided into a total of 8 groups (N=5), one group was treated every day, and 3 animals were selected in each group for measuring cerebral blood flows.
If the hind paws of the mice had no response when clamped with dissecting forceps, they were transferred to an anesthesia mask, and the isoflurane concentration would be increased to 1.5%. A thermostat and an anal temperature probe were used to maintain intraoperative body temperatures of the mice near 37° C. […]
Measurement of cerebral blood flow: the head of each mouse was fixed under a brain stereotaxic instrument, the head hair of the mouse was shaved, and an incision was made in the middle. […] Optical fibers of a laser Doppler flow meter were fixed with glue at coordinates of Bregma AP 1.0 mm and ML 5.0 mm, and the blood flow changes during MCA surgery were recorded. […]
• Body weight: the body weights of the mice on the day before surgery and 24 h after surgery were recorded. • Neurological function scoring: Longa behavioral scoring was performed at 2 h and 24 h after surgery. […]
Each mouse was tested for forelimb grip 24 h before surgery and 24 h after surgery. […] The grip peaks were recorded, repeatedly measured for three times, and averaged. […]

For experiment [3], the system named is OCI-LY3 (human diffuse large B-cell lymphoma cells). Briefly: Cell proliferation assay, OCI-LY3. It counts as cell-based. On the procedure:
(§1) • Experimental and analytical method: cells were inoculated into a 96-well cell culture plate with a lid at a maximum concentration of 10 μM for a test compound, and diluted in three folds to a series of test concentrations, and cells were incubated at 37° C., 5% CO2 for 72 h. The concentration of DMSO was 0.5%, 100 μl of medium was taken from each well. 100 μl of reagent (Celltitute Glo Assay Kit) was added to each well, and a flat plate was shaken on a plate shaker (protected from light) for 2 min. A culture plate was incubated (protected from light) at room temperature for 30 min. Chemiluminescence values were recorded by a multi-plate plate reader, and the experimental results were as follows:
(§2) U937 (histiocytic lymphoma cells), OCI-LY3 (human diffuse large B-cell lymphoma cells), U2932 (human diffuse large B-cell lymphoma cells), and HT cells (human mixed lymphoma cells) were analyzed in the table for experimental analysis of cell proliferation.

Experiment [4] concerns HT cells (human mixed lymphoma cells). The experiment can be described thus: Cell proliferation assay, HT. It counts as cell-based. On the procedure:
as §1, §2

Experiment [5] relates to U2932 (human diffuse large B-cell lymphoma cells). Briefly: Cell proliferation assay, U2932. Type of experiment: cell-based. To be noted: U2932, 72 h. On the procedure:
as §1, §2

Experiment [6] has as its system transgenic AD mice (C57BL/6J background). The experiment can be described thus: Light/dark box test of AD mice. Type of experiment: in vivo, mouse. As to conditions: 6 months after administration. An excerpt:
The principle of the light/dark box test is: the mice have a natural tendency to darkness; and after the mice was put into a light box, the mice would spontaneously enter a connected dark box. However, in this experiment, the dark box was equipped with an electrical stimulation mechanism, and the mice would be shocked when they entered the dark box.

For experiment [7], the system named is C57BL/6 mice modeled with MPTP. The experiment can be described thus: PD mouse model (MPTP). It counts as in vivo. To be noted: 80 mpk, 15 days; vs model group, T-test. On the procedure:
• Experimental and analytical method: mice of C57BL/6 strain were used in this experiment, which were divided into 5 groups, including a normal control group (no injection of MPTP), a model group (modeling with MPTP), and treatment groups of three small molecules (Embodiment 13B, Embodiment 25A, and Embodiment 25B). The drug was administered at the same time as modeling was made. The modeling lasted for 5 days, followed by 30 mpk intraperitoneal injection till lasting for 15 days, and lasted for 15 days at 80 mpk. At the endpoint, the brain was soaked and fixed in PFA after cardiac perfusion, and transferred to sucrose dehydration after complete fixation, and OCT embedding and sectioning were used for TH staining after complete dehydration. The detection indicator was the number of TH-positive cells in the substantia nigra. The more positive cells, the better the protection effect of small molecules against MPTP damage. • Results: there were 12 mice in each group, and the statistical results were shown in FIG. 50, T-test, **: p<0.01, #: p<0.05.

Experiment [8] deals with Raji-Luc hematologic tumor cells in NOD-Scid immunodeficient mice. Briefly: NOD-Scid mice inoculated with hematologic tumor cells Raji-Luc. As to conditions: 100 mpk by gavage once a day.

For the compound `O=C1NCCc2c(OCCCCN3CCCCC3)cccc21` [DPQ], the “protective effect on neuronal damages” value in experiment [1] is given as “significant protective effect”. Also, in experiment [1] (without OGD 10.32%, DMSO negative control 52.31%), the “proportion of dead cells” value was 22.22%.

Regarding `CC1=NN(c2ccccc2)C(=O)C1` [Edaravone], in experiment [2] (Edaravone 10 mg/kg IP, NO. 2 60 mg/kg PO, NO. 3-6 80 mg/kg PO), the forelimb grip strength entry is reported as “significant difference”. The “volume of encephaledema (TTC staining)” value in experiment [2] (doses as Table 6) is on record as “significant difference”.

Take `C[C@H]1CC[C@@]2(OC1)O[C@H]1C[C@H]3[C@@H]4CC[C@@H]5C[C@@H](NC(=O)CC(=O)N6CCN(CCN(C)C)CC6)CC[C@]5(C)C4CC[C@]3(C)[C@H]1[C@@H]2C` (stereo partly drawn) [Embodiment 13A]: the IC50 (commonly the concentration that inhibits the measured activity by half) in experiment [3] (Homo sapiens, OCI-Ly3, 72 h) turned out to be 1.78 µM; in experiment [4] (Homo sapiens, HT, 72 h) it was 1.51 µM; in experiment [5] it was 0.43 µM. Also, the “inhibitory effect on the proliferation of OCI-LY3 cell line (comparison in words)” value in experiment [3] (among compounds of Table 13) is “best inhibitory effect”. Also, the “inhibitory effect on the proliferation of HT cells (comparison in words)” value in experiment [4] (among compounds of Table 13) is “best inhibitory effect”.

On to `C[C@H]1CC[C@@]2(OC1)O[C@H]1C[C@H]3[C@@H]4CC[C@@H]5CC(NC(=O)CC(=O)N6CC(N7CCOCC7)C6)CC[C@]5(C)C4CC[C@]3(C)[C@H]1[C@@H]2C` (stereo partly drawn) [Embodiment 23], for which the “memory on electric shock (latency before entering the dark box)” value in experiment [6] is “could effectively enhance the memory”.

For the compound `CCN1CCN(C2CCN(C(=O)CC(=O)N[C@@H]3CC[C@]4(C)C5CC[C@]6(C)[C@@H]7[C@H](C[C@H]6[C@@H]5CC[C@@H]4C3)O[C@]3(CC[C@H](C)CO3)[C@H]7C)CC2)CC1` (stereo partly drawn) [Embodiment 25B], in experiment [7], the “number of TH-positive cells in the substantia nigra” value is “only the Embodiment 13B group of three small modules had statistically significant differences”. Besides, the “tumor killing effect (in-vivo fluorescence intensity)” value in experiment [8] is recorded as “relatively good tumor killing effects”.
